Usually Ki stands for the equilibrium dissociation constant of an inhibitor or competing ligand from its target. A low value points to tighter binding.

Structures can show the parent of a compound that is named as a salt.

The values that follow come from ChEMBL document CHEMBL2203254, “Anion inhibition studies of the fastest carbonic anhydrase (CA) known, the extremo-CA from the bacterium Sulfurihydrogenibium azorense” (Bioorg Med Chem Lett, 2012).

The target in the first test is Carbonic anhydrase 1 (Homo sapiens, UniProt P00915). Put plainly: Inhibition of human cytosolic carbonic anhydrase 1 preincubated for 15 mins by stopped flow CO2 hydration assay.
Chain of Carbonic anhydrase 1 (P00915 whole entry): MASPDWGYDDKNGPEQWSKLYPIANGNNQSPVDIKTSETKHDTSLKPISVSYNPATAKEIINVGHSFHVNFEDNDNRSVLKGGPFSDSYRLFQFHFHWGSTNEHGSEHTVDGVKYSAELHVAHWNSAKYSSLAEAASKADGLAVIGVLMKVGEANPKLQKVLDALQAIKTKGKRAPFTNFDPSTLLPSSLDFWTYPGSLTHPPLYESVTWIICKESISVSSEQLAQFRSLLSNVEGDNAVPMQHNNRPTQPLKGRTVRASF
The compound `N=C=[Se]` [SODIUM ISOSELENOCYANATE] showed a Ki of 85 µM.
Still for that read-out and setting: the figure for `O=S(=O)(O)ONOS(=O)(=O)O` [SODIUM IMINODISULFATE] is 310 µM.

The target in the next test is Carbonic anhydrase 2 (Homo sapiens, UniProt P00918). Put plainly: Inhibition of human cytosolic carbonic anhydrase 2 preincubated for 15 mins by stopped flow CO2 hydration assay.
`O=S(=O)(O)ONOS(=O)(=O)O` [SODIUM IMINODISULFATE]: the Ki came to 760 µM.

Biological target in another test: not listed separately
Put plainly: Inhibition of Sulfurihydrogenibium azorense alpha-carbonic anhydrase preincubated for 15 mins by stopped flow CO2 hydration assay.
`OB(O)c1ccccc1` [PHENYLBORONIC ACID SODIUM SALT] gave a Ki of 7 µM.
Same read-out and setting: to `O=C([O-])O.[Na+]` [SODIUM BICARBONATE] belongs 15700 µM.
Still for that read-out and setting: to `S=C(S)S` [SODIUM CARBONOTRITHIOATE] belongs 39 µM; to `O=[Te](=O)(O)O` [SODIUM TELLURATE], 410 µM; to `N=C=[Se]` [SODIUM ISOSELENOCYANATE], 490 µM.
Take `O=S(=O)(O)ONOS(=O)(=O)O` [SODIUM IMINODISULFATE]: the Ki was found to be 520 µM. The Ki values of the last two compounds are within 1.5-fold of each other.
The same measure, in the same setting: to `NS(N)(=O)=O` [SULFURIC DIAMIDE SODIUM SALT] belongs 4 µM; to `[F-].[Na+]` [SODIUM FLUORIDE], 980 µM; to `O=BOB(O)OB(O)OB=O` [SODIUM TETRABORATE], 490 µM.
Same read-out and setting: to `F[B-](F)(F)F.[Na+]` [SODIUM TETRAFLUOROBORATE] belongs more than 200000 µM.
Same read-out and setting: the figure for `O=[N+]([O-])[O-].[Na+]` [SODIUM NITRATE] is 760 µM; for `[O-][Cl+3]([O-])([O-])O` [SODIUM PERCHLORATE] it is more than 200000 µM.
In turn, `S` [SODIUM HYDROSULFIDE] yielded a Ki of 380 µM.
The same measure, in the same setting: the figure for `O=[Se](=O)(O)O` [SODIUM SELENATE] is 510 µM; for `O=[As](O)(O)c1ccccc1` [PHENYLARSONIC ACID SODIUM SALT] it is 8 µM; for `O=P(O)(O)OP(=O)(O)O` [SODIUM PYROPHOSPHATE] it is 660 µM.
Still for that read-out and setting: to `[I-].[Na+]` [SODIUM IODIDE] belongs 870 µM; to `O=S(=O)([O-])[O-].[Na+].[Na+]` [SODIUM SULFATE ANHYDROUS], 10000 µM.
Still for that read-out and setting: the figure for `CCN(CC)C(=S)S` [DITIOCARB SODIUM] is 3 µM; for `[Cl-].[Na+]` [SODIUM CHLORIDE] it is 850 µM; for `[Br-].[Na+]` [SODIUM BROMIDE] it is 940 µM.
The compound `N=C=S` [SODIUM ISOTHIOCYANATE] yielded a Ki of 580 µM.
Still for that read-out and setting: to `[N-]=[N+]=[N-]` [SODIUM AZIDE] belongs 340 µM; to `NS(=O)(=O)O` [SODIUM SULFAMATE], 5 µM; to `CC(=O)Nc1nnc(S(N)(=O)=O)s1` [ACETAZOLAMIDE], 0.0009 µM.
Take `O=S(=O)(O)OOS(=O)(=O)O` [SODIUM PERSULFATE]: affinity was put at a Ki of 32900 µM.
On the same count and under the same terms, to `O=C([O-])[O-].[Na+].[Na+]` [SODIUM CARBONATE] belongs 7600 µM; to `O=S([O-])O.[Na+]` [SODIUM BISULFITE], 950 µM; to `O=NO` [SODIUM NITRITE], 580 µM.
